Assays:
[1] = system: P. falciparum stage V female gametocytes (female gamete formation); experiment: P. falciparum dual gamete formation assay (Pf DGFA), female readout (Pfs25 expression), 48 h carry-over format; assay type: cell-based, Plasmodium falciparum NF54; details: primary screen, 2 uM, 48 h incubation, single replicate
Description: (§1) P. falciparum NF54 strain (originally isolated from an imported malaria case in the Netherlands in the 1980s; BEI Resources, cat. no. MRA-1000) asexual and sexual stages culture was performed as previously described. Gametocyte cultures were initiated at 1% asexual ring stage parasitaemia and 4% haematocrit in 40 ml final volume. To induce gametocyte production, complete culture medium (CM) (RPMI 1640 supplemented with 25 mM HEPES, 50 µg ml^−1 hypoxanthine, 2 g l^−1 NaHCO3 and 10% pooled human male type A+ serum) was replaced daily for 14 days without fresh erythrocyte addition. Human serum was obtained from Interstate Blood Bank, A^+ serotype; no aspirin 2 h before drawing and no antimalarials 2 weeks before drawing. On day 14 after culture induction, gametocyte production was assessed by thin smear and Giemsa staining, and exflagellation accurately counted in a haemocytometer. Gametocyte cultures with >0.2% exflagellation (compared to total erythrocyte cell number) were deemed acceptable for use in the Pf DGFA. Note, all human biological samples were sourced ethically and their research use was in accord with the terms of the informed consents under an IRB/EC approved protocol.
In screening mode, the assay was performed as described in Delves et al.[35] with a mean Z′ factor of 0.56 ± 0.14 (SD) (male) and 0.71 ± 0.17 (SD) (female). Pooled mature gametocyte cultures with the capacity to yield >0.2% exflagellation (of total cells) were diluted in CM to 14 million cells per ml and so that 700,000 cells were dispensed in 50 µl into each well of the warmed 384-well screening plates. […] 92%N2/5% CO2/3% O2 gas mix before gamete formation was triggered by addition of 10 µl per well ookinete medium (RPMI 1640 supplemented with 25 mM HEPES, 50 µg ml^−1 hypoxanthine, 2 g l^−1 NaHCO3, 100 µM xanthurenic acid) containing 0.5 µg ml^−1 anti-Pfs25 clone 4B7 (BEI Resources, cat. no. MRA-315) conjugated to the fluorophore Cy3 (GE Healthcare), and also by cooling the plate at 4 °C for 4 min and then a further 5 min at 28 °C. Exflagellation was recorded immediately by brightfield microscopy using a Nikon Ti-E widefield microscope at ×4 objective, ×1.5 zoom, recording a 10-frame video time-lapse over 2 s for each well. Afterwards, plates were incubated in the dark at 28 °C for a further 24 h to allow female gametes to maximally express Pfs25 on their surface. Female gamete formation was recorded by single-image fluorescence microscopy using the same microscope and magnification as above. Exflagellation and female gamete formation were quantified by specific algorithms designed with the open-source ICY Image Analysis software.
(§2) Assay performance statistics, such as signal to background ratio, Z′ and robust 3×SD activity cut-off were calculated using templates in ActivityBase XE (IDBS, Guilford, Surrey, UK). Hit population analysis and visualisation were conducted using Spotfire DecisionSite (Spotfire, Inc., Somerville, Massachusetts). The pIC50 (−log IC50) values were obtained using the ActivityBase XE nonlinear regression function in the full curve analysis bundle. In screening mode, the Pf DGFA achieved a mean Z′ factor of 0.56 ± 0.14 (SD) (male) and 0.71 ± 0.17 (SD) (female).

[2] = system: P. falciparum stage V male gametocytes (male gamete formation); experiment: P. falciparum dual gamete formation assay (Pf DGFA), male readout (exflagellation), 48 h carry-over format; assay type: cell-based, Plasmodium falciparum NF54; details: for %Inhibition Male @2uM: primary screen, 48 h incubation, single replicate; for Male IC50 / IC50: SAR, Fig. 6 and Fig. 7; for IC50: Plasmodium falciparum, read-out: Male IC50; for Selectivity: parasite selectivity compared to Tox50 in HepG2 cells
Description: as §1
In screening mode, the assay was performed as described in Delves et al.[35] with a mean Z′ factor of 0.56 ± 0.14 (SD) (male) and 0.71 ± 0.17 (SD) (female). Pooled mature gametocyte cultures with the capacity to yield >0.2% exflagellation (of total cells) were diluted in CM to 14 million cells per ml and so that 700,000 cells were dispensed in 50 µl into each well of the warmed 384-well screening plates. Parasites were incubated in the plates with compounds for 48 h in a humidified chamber under 92%N2/5% CO2/3% O2 gas mix before gamete formation was triggered by addition of 10 µl per well ookinete medium (RPMI 1640 supplemented with 25 mM HEPES, 50 µg ml^−1 hypoxanthine, 2 g l^−1 NaHCO3, 100 µM xanthurenic acid) containing 0.5 µg ml^−1 anti-Pfs25 clone 4B7 (BEI Resources, cat. no. MRA-315) conjugated to the fluorophore Cy3 (GE Healthcare), and also by cooling the plate at 4 °C for 4 min and then a further 5 min at 28 °C. Exflagellation was recorded immediately by brightfield microscopy using a Nikon Ti-E widefield microscope at ×4 objective, ×1.5 zoom, recording a 10-frame video time-lapse over 2 s for each well. Afterwards, plates were incubated in the dark at 28 °C for a further 24 h to allow female gametes to maximally express Pfs25 on their surface. Female gamete formation was recorded by single-image fluorescence microscopy using the same microscope and magnification as above. Exflagellation and female gamete formation were quantified by specific algorithms designed with the open-source ICY Image Analysis software.
as §2

| Structure (SMILES) | %Inhibition Female @2uM [1] [%] | %Inhibition Male @2uM [2] [%] | Male IC50 [2] | IC50 [2] [µM] | Selectivity [2] |
| --- | --- | --- | --- | --- | --- |
| Cc1ccc(-c2noc(C(C)NS(C)(=O)=O)n2)cc1 (stereo not shown) [DDD01025633] | <30 | 37.79 |  |  |  |
| Cc1ccc(C(=O)N2CC[C@@]3(O)CCCC[C@H]3C2)cc1 [DDD01026498] | 36.05 | <30 |  |  |  |
| Cn1c(CN2CCCCCC2)cc(=O)c(O)c1CN1CCCC1 [DDD01027184] | <30 | 31.50 |  |  |  |
| NC(=O)Cn1c(CO)cnc1SCc1ccccc1Cl [DDD01027486] | 30.58 | <30 |  |  |  |
| O=C(Nc1ncnc2c1CCC2)c1cccc(F)c1 [DDD01027506] | 33.11 | <30 |  |  |  |
| COCCc1nnc(NC(=O)CSCc2ccccc2)o1 [DDD01027773] | <30 | 33.86 |  |  |  |
| O=S(=O)(c1ccccc1Br)N1CCC2(CC1)OCCS2 [DDD01027971] | 31.22 | <30 |  |  |  |
| C1CCN(c2nc(N3CCOCC3)nc3n[nH]nc23)CC1 [DDD01027997] | 37.52 | <30 |  |  |  |
| Cc1cccc(CS(=O)(=O)NCc2nn(C)c3c2COCC3)c1 [DDD01028624] | 40.92 | <30 |  |  |  |
| CNC(=O)[C@@H]1COC[C@H]2CN(C(=O)c3ccc(OC)cc3)C[C@H]21 [DDD01030727] | 30.90 | <30 |  |  |  |
| Cc1cnc(N2CCC[C@@H]3CN(CC(=O)N(C)C)C[C@@H]32)nc1 [DDD01031282] | 34.01 | <30 |  |  |  |
| O=C(Cc1ccsc1)N1C[C@@H]2OCCN(c3cnccn3)[C@@H]2C1 [DDD01031297] | 38.82 | <30 |  |  |  |
| CCn1ncc2c1C(COC)N(C(=O)c1ccc3c(c1)OCO3)CC2 (stereo not shown) [DDD01031312] | 34.92 | <30 |  |  |  |
| COCCN1CCO[C@@H]2CN(C(=O)NCc3cccnc3)CC[C@@H]2C1 [DDD01031413] | 31.80 | <30 |  |  |  |
| c1cc(CNCC2Cn3nncc3CO2)co1 (stereo not shown) [DDD01031485] | 38.17 | <30 |  |  |  |
| Cc1ccc(CN2CCCC3(CCN(Cc4ccoc4)CC3)C2)cc1 [DDD01031609] | 33.18 | <30 |  |  |  |
| Cc1ccc(N2CC[C@@H]3[C@@H]2CCN3C(=O)c2cscn2)nn1 [DDD01031738] | 32.44 | <30 |  |  |  |
| CN1CCN(C(=O)c2cc3c(s2)CCN3C(=O)C2CC2)CC1 [DDD01031830] | 50.73 | <30 |  |  |  |
| CO[C@H]1CC[C@H]2[C@H]1OCCN2Cc1ccc(F)c(F)c1 [DDD01032445] | <30 | 37.39 |  |  |  |
| O=C(O)c1nnn(-c2cc(F)cc(F)c2)c1-c1ccncc1 [DDD01034739] | 37.18 | <30 |  |  |  |
| CC(=O)Nc1ccc(Br)cc1 [compound 7683] |  |  | Inactive |  |  |
| O=C(CCl)Nc1ccccc1 [compound 11485] |  |  |  | 2.41 | 21 |
| Cc1ccc(NC(=O)CCl)cc1 [compound 27967] |  |  |  | 3.39 | 15 |

| Structure (SMILES) | %Inhibition Female @2uM [1] [%] | %Inhibition Male @2uM [2] [%] | Male IC50 [2] | IC50 [2] [µM] | Selectivity [2] |
| --- | --- | --- | --- | --- | --- |
| COc1cccc(NC(=O)CCl)c1 [compound 28667] |  |  |  | 2.21 | 14 |
| COc1ccc(NC(=O)CCl)cc1 [compound 31123] |  |  |  | 2.66 | 24 |
| CN(C(=O)CCl)c1ccccc1 [compound 75797] |  |  |  | 6.41 | 2 |
| Cc1ccccc1NC(=O)CCl [compound 101479] |  |  |  | 10.4 | 10 |
| O=C(CCl)N1CCc2ccccc21 [compound 176897] |  |  |  | 1.63 | 8 |
| O=C(CCl)Nc1ccccc1Cl [compound 222444] |  |  |  | 11.2 | 7 |
| O=C(CCl)Nc1ccc(Cl)cc1Cl [compound 225998] |  |  |  | 4.03 | 21 |
| O=C(CCl)Nc1ccc(O)cc1 [compound 236323] |  |  |  | 1.95 | > 51 |
| Cc1cc(Cl)ccc1NC(=O)CCl [compound 249708] |  |  |  | 5.84 | > 17 |
| Cc1cccc(NC(=O)CCl)c1 [compound 296325] |  |  |  | 4.5 | 18 |
| O=C(CCl)Nc1ccccc1O [compound 350567] |  |  | Inactive |  |  |
| O=C(Nc1ccc(Br)cc1)C(Cl)Cl [compound 532122] |  |  | Inactive |  |  |
| O=C1C(Cl)=C(Cl)C(=O)N1c1ccc(Br)cc1 [compound 779209] |  |  | Inactive |  |  |
| N#Cc1ccccc1NC(=O)CCl [compound 819001] |  |  |  | 5.25 | > 19 |
| NCC(=O)Nc1ccc(Br)cc1 [compound 871334] |  |  | Inactive |  |  |
| O=C(CCl)Nc1ccccc1F [compound 1522874] |  |  |  | 3.26 | > 31 |
| Cc1cc(Br)ccc1NC(=O)CCl [compound 2097895] |  |  |  | 4.77 | 4 |
| O=C(Nc1ccc(Br)cc1Cl)C(Cl)(Cl)Cl [compound 2725563] |  |  | Inactive |  |  |
| CC(C)c1cc(Br)ccc1NC(=O)CCl [compound 4066920] |  |  |  | 12.1 | 2 |
| Cc1cc(Br)ccc1NC(=O)CCCCl [compound 19226390] |  |  | Inactive |  |  |
| O=C(CCl)Nc1ccc(CO)cc1 [compound 22457525] |  |  |  | 2.08 | > 48 |
| COC(=O)Nc1ccc(NC(=O)CCl)cc1 [compound 43701226] |  |  | Inactive |  |  |

From paper PMC6143625, “A high throughput screen for next-generation leads targeting malaria parasite transmission” (Nature Communications, 2018)
